The source of these data is PubChem BioAssay (NCI).

What all share (assay): NCI tumour cell line growth inhibition, 48 h
For assay [1], the system named is HCC-2998 colon.
Assay [2] relates to SK-MEL-28 melanoma.
Assay [3] concerns MOLT-4 leukemia.
The subject of assay [4] is CAKI-1 renal.
Assay [5] deals with RPMI-8226 leukemia.
The test system of assay [6] is HCT-116 colon.
Assay [7] relates to SW-620 colon.
Assay [8] deals with HCT-15 colon.
Assay [9] concerns A498 renal.
Assay [10] has as its system OVCAR-3 ovarian.

The structures appear in SMILES notation.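 Results reflect a 48-hour exposure of cells in 96-well plates to compound at five concentrations. GI50 is the concentration that inhibits growth by half. Definition used: TGI = concentration required for complete inhibition of growth.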 Bounds are passed on as bounds.

`CCOC(=O)/C=C/c1c[nH]c(=O)[nH]c1=O`: the TGI in [1] was above 75 µM; in assay [2] it was above 75 µM; in [3], above 48.7 µM; in assay [4], above 75 µM; in assay [5], above 57 µM; in assay [6] it was above 75 µM. Further, the TGI in assay [7], in assay [8], in [9] and in [10] was above 75 µM in each case.

As to `CCCCCCC(=O)c1ccc2ccccc2c1O`, the TGI in assay [1] was above 100 µM; in assay [2], above 100 µM; in assay [3], above 100 µM; in assay [4], 95.4 µM; in assay [5], above 100 µM; in assay [6] it was above 100 µM. Also, the TGI in assay [7], in assay [8] and in assay [9] was above 100 µM throughout.

Consider `CC(=O)OCc1nnn2c1CCC2`, for which the TGI in assay [1], in [2], in assay [3], in assay [6], in assay [7] and in [8] was above 100 µM throughout. This compound had a TGI in [10] above 100 µM.

In the case of `C=CCOC1OC(CS(=O)(=O)O)C(OC(C)=O)C(OC(C)=O)C1OC(C)=O` (stereo not drawn), the TGI in [1], in assay [2], in assay [3], in assay [4], in [5] and in [6] was above 100 µM each time. Besides, the TGI in assay [7], in assay [8], in [9] and in assay [10] was above 100 µM each time.

Turning to `CCOC(=O)C1=C(C)N(C2OC(COC(C)=O)C(OC(C)=O)C(OC(C)=O)C2OC(C)=O)C(=O)NC1c1ccccc1` (stereo not drawn), the TGI in assay [1], in [2], in [3], in assay [4], in assay [5] and in assay [6] was above 100 µM throughout. Further, the TGI in assay [7], in assay [8], in assay [9] and in [10] was above 100 µM in each case.

Regarding `COc1ccc(OCC(C)(C)O)cc1`, the TGI in assay [1], in assay [2], in assay [3], in assay [4], in assay [5] and in assay [6] was above 100 µM each time. For the same compound, the TGI in [7], in assay [8], in assay [9] and in [10] was above 100 µM each time.

For `c1ccc(N2N=C3N(c4ccccc4)C2N3c2ccccc2)cc1`, the TGI was 77.5 µM in assay [1]; 43.4 µM in assay [2]; 62.5 µM in [3]; above 100 µM in assay [4]; 48.7 µM in assay [5]; above 100 µM in assay [6]. Also, the TGI in assay [7], in assay [8], in assay [9] and in assay [10] was above 100 µM each time.

For `COc1ccc(-c2c3c(nc4[nH]c(=S)[nH]c(=S)c24)CCCC3)cc1OC`, the TGI in [2] is 70.7 µM; in [3], 61.2 µM; in [4], above 100 µM; in assay [5] it was above 100 µM; in [6] it was above 100 µM; in [7] it was above 100 µM. The TGI in assay [8] and in assay [10] was above 100 µM throughout.

For the compound `CCCCn1c(C)c2c(c1C)C(=O)N(CCN1CCN(c3ccccc3Cl)CC1)C2=O`, the TGI in [1] was 72.5 µM; in assay [3] it was 52.2 µM; in assay [4], above 100 µM; in [5] it was 55.1 µM; in [6], 34.3 µM; in assay [7], above 100 µM. Moreover, the TGI in assay [8], in [9] and in assay [10] was above 100 µM each time.

For `CCCCCCCCCC[N+](C)(C)C`, the GI50 is 1580 nM in assay [1]; 3.07 µM in [2]; 1590 nM in assay [3]; 2520 nM in assay [4]; 604 nM in assay [5]; 2340 nM in assay [6]. The GI50 in assay [7] is 2130 nM; in assay [8], 2490 nM; in [9] it was 1780 nM; in [10] it was 1680 nM. In addition, the TGI in assay [1] was 3.53 µM; in assay [2], 12.2 µM; in [3], 3.43 µM; in [4], 15.3 µM; in assay [5], 2.9 µM; in assay [6], 10.5 µM. Besides, the TGI in assay [7] turned out to be 10.1 µM; in assay [8] it was 17.1 µM; in [9], 7.81 µM; in [10] it was 5.4 µM.
